In ChEMBL document CHEMBL5154649, “Design, synthesis, and characterization of novel aminoalcohol quinolines with strong in vitro antimalarial activity” (Eur J Med Chem, 2022):

Columns and labels:
Plasmodium falciparum [1] = experiment: Antiplasmodial activity against CQ-susceptible Plasmodium falciparum 3D7 assessed as inhibition of parasite growth measured after 48 hrs by SYBR Green 1 dye based fluorescence assay; assay type: functional, organism-based; details: 3D7, 48 h
Plasmodium falciparum [2] = experiment: Antiplasmodial activity against CQ-resistant Plasmodium falciparum W2 assessed as inhibition of parasite growth measured after 48 hrs by SYBR Green 1 dye based fluorescence assay; assay type: functional, organism-based; details: W2, 48 h
Plasmodium falciparum [3] = experiment: Selectivity index, ratio of IC50 for antiplasmodial activity against CQ-susceptible Plasmodium falciparum 3D7 to IC50 for antiplasmodial activity against CQ-resistant Plasmodium falciparum W2 by SYBR Green 1 dye based fluorescence assay; assay type: functional
[4] = Cytotoxicity against human HepG2 cells assessed as reduction in cell viability incubated for 72 hrs by MTT assay; assay type: toxicity, cell-based
[5] = Cytotoxicity against Chinese hamster CHO cells assessed as reduction in cell viability incubated for 24 hrs by MTT assay; assay type: toxicity, cell-based, Cricetulus griseus
[6] = Cytotoxicity against human THP-1 cells assessed as reduction in cell viability incubated for 72 hrs by MTT assay; assay type: toxicity, cell-based
[7] = Cytotoxicity against human HFF cells assessed as reduction in cell viability incubated for 72 hrs by MTT assay; assay type: toxicity, cell-based
[8] = Selectivity index, ratio of IC50 for cytotoxicity against human HepG2 cells to IC50 for antiplasmodial activity against Plasmodium falciparum 3D7 infected in human erythrocytes by HRP2-ELISA; assay type: toxicity, cell-based; details: read-out: Ratio IC50
[9] = Selectivity index, ratio of IC50 for cytotoxicity against chinese hamster CHO cells to IC50 for antiplasmodial activity against Plasmodium falciparum 3D7 infected in human erythrocytes by HRP2-ELISA; assay type: toxicity, cell-based; details: read-out: Ratio IC50
[10] = Selectivity index, ratio of IC50 for cytotoxicity against human THP-1 cells to IC50 for antiplasmodial activity against Plasmodium falciparum 3D7 infected in human erythrocytes by HRP2-ELISA; assay type: toxicity, cell-based; details: read-out: Ratio IC50
[11] = Selectivity index, ratio of IC50 for human HFF cells to IC50 for antiplasmodial activity against Plasmodium falciparum 3D7 infected in human erythrocytes by HRP2-ELISA; assay type: toxicity, cell-based; details: read-out: Ratio IC50
Plasmodium falciparum [12] = experiment: Antiplasmodial activity against CQ-susceptible Plasmodium falciparum 3D7 infected in human erythrocytes assessed as inhibition of parasite growth measured after 72 hrs by HRP2-ELISA; assay type: functional, organism-based; details: 3D7, Erythrocyte
Plasmodium falciparum [13] = experiment: Antiplasmodial activity CQ-resistant Plasmodium falciparum W2 infected in human erythrocytes assessed as inhibition of parasite growth measured after 72 hrs by HRP2-ELISA; assay type: functional, organism-based; details: W2, Erythrocyte
Plasmodium falciparum [14] = experiment: Selectivity index, ratio of IC50 for antiplasmodial activity against CQ-susceptible Plasmodium falciparum 3D7 to IC50 for antiplasmodial activity CQ-resistant Plasmodium falciparum W2 by HRP2-ELISA; assay type: functional

| Structure (SMILES) | IC50 (Plasmodium falciparum [1]) | IC50 (Plasmodium falciparum [2]) | Ratio IC50 (Plasmodium falciparum [3]) | further results |
| --- | --- | --- | --- | --- |
| O[C@@H](CN1CCN(CCN2CCN(C[C@H](O)c3cc(C(F)(F)F)nc4c(C(F)(F)F)cccc34)CC2)CC1)c1cc(C(F)(F)F)nc2c(C(F)(F)F)cccc12 | 147 nM | > 1000 nM |  |  |
| O[C@H](CNCCCCCCCCCCCCNC[C@@H](O)c1cc(C(F)(F)F)nc2c(C(F)(F)F)cccc12)c1cc(C(F)(F)F)nc2c(C(F)(F)F)cccc12 | 249 nM | 837 nM | 0.3 |  |
| OC[C@H](NC[C@@H](O)c1cc(C(F)(F)F)nc2c(C(F)(F)F)cccc12)c1ccccc1 | 103 nM | 10.1 nM | 10.3 |  |
| O[C@H](CN1CCN(C(c2ccccc2)c2ccccc2)CC1)c1cc(C(F)(F)F)nc2c(C(F)(F)F)cccc12 | 39 nM | 36.7 nM | 1.1 |  |
| C[C@H](CO)NC[C@H](O)c1cc(C(F)(F)F)nc2c(C(F)(F)F)cccc12 | 48.2 nM | 10.1 nM | 4.8 |  |
| OCCN1CCN(C[C@@H](O)c2cc(C(F)(F)F)nc3c(C(F)(F)F)cccc23)CC1 | > 1000 nM |  |  |  |
| OC[C@@H](NC[C@H](O)c1cc(C(F)(F)F)nc2c(C(F)(F)F)cccc12)c1ccccc1 | 104 nM | 15.9 nM | 6.5 |  |
| COC[C@H](C)NC[C@@H](O)c1cc(C(F)(F)F)nc2c(C(F)(F)F)cccc12 | 11.7 nM | 57.2 nM | 0.2 |  |
| O[C@@H](CNCCCCCCCCCCCCNC[C@H](O)c1cc(C(F)(F)F)nc2c(C(F)(F)F)cccc12)c1cc(C(F)(F)F)nc2c(C(F)(F)F)cccc12 | > 1000 nM | > 1000 nM |  |  |
| C[C@H](CO)NC[C@@H](O)c1cc(C(F)(F)F)nc2c(C(F)(F)F)cccc12 (single isomer, unassigned) | 68.5 nM | 10 nM | 6.85 |  |
| O[C@@H](CN1CCN(C(c2ccccc2)c2ccccc2)CC1)c1cc(C(F)(F)F)nc2c(C(F)(F)F)cccc12 | 53.6 nM | 29.3 nM | 1.8 |  |
| O[C@@H](CNCC1CC1)c1cc(C(F)(F)F)nc2c(C(F)(F)F)cccc12 | 23 nM | 16.8 nM | 1.4 | IC50 at 72 h [4]: 6600 nM; IC50 at 24 h [5]: 25400 nM; IC50 at 72 h [6]: 12400 nM; IC50 at 72 h [7]: 48400 nM; selectivity ratio [8]: 369; selectivity ratio [9]: 1420; selectivity ratio [10]: 693; selectivity ratio [11]: 2700; IC50 (Plasmodium falciparum [12]): 17.9 nM; IC50 (Plasmodium falciparum [13]): 15.3 nM; Ratio IC50 (Plasmodium falciparum [14]): 1.2 |
| O[C@@H](CN1CCNCC1)c1cc(C(F)(F)F)nc2c(C(F)(F)F)cccc12 | > 1000 nM |  |  |  |
| COc1cccc2c1C(=O)c1c(O)c3c(c(O)c1C2=O)C[C@@](O)(C(=O)CO)C[C@@H]3O[C@H]1C[C@H](N)[C@H](O)[C@H](C)O1 [DOXORUBICIN] |  |  |  | IC50 at 24 h [5]: 3600 nM; IC50 at 72 h [6]: 20 nM |
| NCCCCCCCCCCCCNC[C@@H](O)c1cc(C(F)(F)F)nc2c(C(F)(F)F)cccc12 | 23.9 nM | 43.8 nM | 0.55 |  |
| O[C@H](CN1CCN(Cc2cccc3ccccc23)CC1)c1cc(C(F)(F)F)nc2c(C(F)(F)F)cccc12 | > 1000 nM |  |  |  |
| OC[C@@H](Cc1ccccc1)NC[C@@H](O)c1cc(C(F)(F)F)nc2c(C(F)(F)F)cccc12 (single isomer, unassigned) | 35.6 nM | 10.3 nM | 3.5 | IC50 at 72 h [4]: 15400 nM; IC50 at 24 h [5]: 35800 nM; IC50 at 72 h [6]: 7500 nM; IC50 at 72 h [7]: 45400 nM; selectivity ratio [8]: 151; selectivity ratio [9]: 345; selectivity ratio [10]: 73; selectivity ratio [11]: 444; IC50 (Plasmodium falciparum [12]): 102 nM; IC50 (Plasmodium falciparum [13]): 82.7 nM; Ratio IC50 (Plasmodium falciparum [14]): 1.2 |
| O[C@H](CNCCN1CCN(C(c2ccccc2)c2ccccc2)CC1)c1cc(C(F)(F)F)nc2c(C(F)(F)F)cccc12 | 75.7 nM | 63 nM | 1.2 | IC50 at 72 h [4]: 7000 nM; IC50 at 24 h [5]: 24800 nM; IC50 at 72 h [6]: 10800 nM; IC50 at 72 h [7]: 13300 nM; selectivity ratio [8]: 60; selectivity ratio [9]: 213; selectivity ratio [10]: 93; selectivity ratio [11]: 114; IC50 (Plasmodium falciparum [12]): 116 nM; IC50 (Plasmodium falciparum [13]): 89.3 nM; Ratio IC50 (Plasmodium falciparum [14]): 1.3 |
| O[C@@H](CNCCCN1CCN(CCCNC[C@H](O)c2cc(C(F)(F)F)nc3c(C(F)(F)F)cccc23)CC1)c1cc(C(F)(F)F)nc2c(C(F)(F)F)cccc12 | > 1000 nM | 321 nM | > 3.1 |  |
| O[C@@H](CN1CCN(Cc2cccc3ccccc23)CC1)c1cc(C(F)(F)F)nc2c(C(F)(F)F)cccc12 | > 1000 nM |  |  |  |
| C[C@H]1[C@@H](O)O[C@@H]2O[C@@]3(C)CC[C@H]4[C@H](C)CC[C@@H]1[C@@]24OO3 [ARTENIMOL] |  |  |  | IC50 (Plasmodium falciparum [12]): 2.8 nM; IC50 (Plasmodium falciparum [13]): 3 nM; Ratio IC50 (Plasmodium falciparum [14]): 0.9 |
| C[C@@H](CO)NC[C@H](O)c1cc(C(F)(F)F)nc2c(C(F)(F)F)cccc12 (single isomer, unassigned) | 138 nM | 51.7 nM | 2.7 |  |
| OCCNC[C@H](O)c1cc(C(F)(F)F)nc2c(C(F)(F)F)cccc12 | > 1000 nM |  |  |  |

| Structure (SMILES) | IC50 (Plasmodium falciparum [1]) | IC50 (Plasmodium falciparum [2]) | Ratio IC50 (Plasmodium falciparum [3]) | further results |
| --- | --- | --- | --- | --- |
| NC[C@@H](O)c1cc(C(F)(F)F)nc2c(C(F)(F)F)cccc12 |  | 1460 nM |  |  |
| NCCCCCCCCCCCCNC[C@H](O)c1cc(C(F)(F)F)nc2c(C(F)(F)F)cccc12 | 176 nM | 379 nM | 0.5 |  |
| O[C@H](CN1CCN(CCN2CCN(C[C@@H](O)c3cc(C(F)(F)F)nc4c(C(F)(F)F)cccc34)CC2)CC1)c1cc(C(F)(F)F)nc2c(C(F)(F)F)cccc12 | 726 nM |  |  |  |
| C=C[C@H]1CN2CC[C@H]1C[C@H]2[C@H](O)c1ccnc2ccc(OC)cc12 [QUININE] |  |  |  | IC50 (Plasmodium falciparum [12]): 74.2 nM; IC50 (Plasmodium falciparum [13]): 474 nM; Ratio IC50 (Plasmodium falciparum [14]): 0.2 |
| COC[C@H](C)NC[C@H](O)c1cc(C(F)(F)F)nc2c(C(F)(F)F)cccc12 | 14.4 nM | 5.1 nM | 2.8 |  |
| O[C@H](CNCCCN1CCN(CCCNC[C@@H](O)c2cc(C(F)(F)F)nc3c(C(F)(F)F)cccc23)CC1)c1cc(C(F)(F)F)nc2c(C(F)(F)F)cccc12 | > 1000 nM | 534 nM | > 1.9 |  |
| O[C@@H](CNCCN1CCN(C[C@H](O)c2cc(C(F)(F)F)nc3c(C(F)(F)F)cccc23)CC1)c1cc(C(F)(F)F)nc2c(C(F)(F)F)cccc12 | 453 nM | 182 nM | 2.5 |  |
| CC(C)(CO)NC[C@@H](O)c1cc(C(F)(F)F)nc2c(C(F)(F)F)cccc12 | 254 nM | 137 nM | 1.9 |  |
| OC[C@H](NC[C@H](O)c1cc(C(F)(F)F)nc2c(C(F)(F)F)cccc12)c1ccccc1 | 136 nM | 29.9 nM | 4.55 |  |
| OCCCC(CCCO)(CCCO)NC[C@@H](O)c1cc(C(F)(F)F)nc2c(C(F)(F)F)cccc12 | > 1000 nM |  |  |  |
| CC(C)(CO)NC[C@H](O)c1cc(C(F)(F)F)nc2c(C(F)(F)F)cccc12 | 99.3 nM | 31.5 nM | 3.15 |  |
| NCCNC[C@H](O)c1cc(C(F)(F)F)nc2c(C(F)(F)F)cccc12 | > 1000 nM | > 1000 nM |  |  |
| C[C@@H](CO)NC[C@@H](O)c1cc(C(F)(F)F)nc2c(C(F)(F)F)cccc12 | 166 nM |  |  |  |
| O[C@H](CNCCN1CCN(C[C@@H](O)c2cc(C(F)(F)F)nc3c(C(F)(F)F)cccc23)CC1)c1cc(C(F)(F)F)nc2c(C(F)(F)F)cccc12 | 361 nM | 61.8 nM | 5.8 |  |
| O[C@H](CN1CCN(C[C@@H](O)c2cc(C(F)(F)F)nc3c(C(F)(F)F)cccc23)CC1)c1cc(C(F)(F)F)nc2c(C(F)(F)F)cccc12 | 953 nM | 707 nM | 1.35 |  |
| OCCCC(CCCO)(CCCO)NC[C@H](O)c1cc(C(F)(F)F)nc2c(C(F)(F)F)cccc12 | > 1000 nM |  |  |  |
| O[C@H](CN1CCNCC1)c1cc(C(F)(F)F)nc2c(C(F)(F)F)cccc12 | > 1000 nM |  |  |  |
| OCCN1CCN(C[C@H](O)c2cc(C(F)(F)F)nc3c(C(F)(F)F)cccc23)CC1 | > 1000 nM |  |  |  |
| NCCNC[C@@H](O)c1cc(C(F)(F)F)nc2c(C(F)(F)F)cccc12 | > 1000 nM | > 1000 nM |  |  |
| OCCNC[C@@H](O)c1cc(C(F)(F)F)nc2c(C(F)(F)F)cccc12 | > 1000 nM |  |  |  |
| O[C@@H](CN1CCN(C[C@H](O)c2cc(C(F)(F)F)nc3c(C(F)(F)F)cccc23)CC1)c1cc(C(F)(F)F)nc2c(C(F)(F)F)cccc12 | > 1000 nM | > 1000 nM |  |  |
| OC[C@@H](NC[C@@H](O)c1cc(C(F)(F)F)nc2c(C(F)(F)F)cccc12)c1ccccc1 | 94.4 nM | 9.8 nM | 9.6 |  |
| CCNCc1cc(Nc2ccnc3cc(Cl)ccc23)ccc1O [DESETHYL AMODIAQUINE] |  |  |  | IC50 (Plasmodium falciparum [12]): 24.7 nM; IC50 (Plasmodium falciparum [13]): 100 nM; Ratio IC50 (Plasmodium falciparum [14]): 0.25 |
